Calls of active or inactive are those of the source. The rule behind the calls is not given here.
Target: Dual specificity protein phosphatase 1 (Homo sapiens) (UniProt P28562)
Experiment: MKP-1 phosphatase inhibitor potency, dose response, biochemical, in vitro, confirmation (AID 551)
Details: recombinant MKP-1 phosphatase, fluorescence substrate

Chain of Dual specificity protein phosphatase 1 (Homo sapiens) (P28562 whole entry, looked up): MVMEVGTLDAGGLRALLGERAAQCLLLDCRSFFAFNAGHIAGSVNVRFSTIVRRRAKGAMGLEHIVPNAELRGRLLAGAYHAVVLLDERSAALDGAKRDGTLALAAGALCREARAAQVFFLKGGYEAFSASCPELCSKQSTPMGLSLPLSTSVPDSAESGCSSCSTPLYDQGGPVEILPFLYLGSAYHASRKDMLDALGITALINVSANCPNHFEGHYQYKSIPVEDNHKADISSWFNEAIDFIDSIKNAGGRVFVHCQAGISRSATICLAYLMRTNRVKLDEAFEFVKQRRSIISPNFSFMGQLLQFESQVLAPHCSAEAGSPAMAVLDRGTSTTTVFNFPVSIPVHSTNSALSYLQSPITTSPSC

| SMILES | IC50 |
| --- | --- |
| CCSCCOC(=O)C1=C(C)NC2=C(C(=O)CCC2)C1c1coc2ccccc2c1=O (centres undefined) | > 50 µM (inactive) |
| CCOC(=O)c1ccc(NC2c3ncccc3C(=O)N2Cc2ccc(F)cc2)cc1 (centres undefined) | > 50 µM (inactive) |
| O=C1c2cccnc2C(Nc2ccc(S(=O)(=O)N3CCCCCC3)cc2)N1Cc1ccccc1 (centres undefined) | > 50 µM (inactive) |
| O=C1c2ccccc2-c2onc3ccc(NCCCn4ccnc4)c1c23 | 27.8 µM |
| Oc1ccc2ccccc2c1C=NC12CN3CCN(CN(C3)C1)C2 | > 50 µM (inactive) |
| Cc1cc(C)n2c(SCC(=O)N3CCN(S(=O)(=O)c4ccc(Cl)cc4)CC3)nnc2n1 | 50 µM |
| N#C/C(=C(/O)CSc1nnc(Cc2cccs2)n1C1CCCCC1)c1nc2ccccc2[nH]1 | > 50 µM (inactive) |
| O=C1C(C2=C(O)c3ccccc3C2=O)=Nc2ccccc21 | > 50 µM (inactive) |
| COC(=O)C1=C(C)NC2=C(C(=O)c3ccccc32)C1c1ccc(-c2ccc(C(=O)O)cc2)o1 (centres undefined) | > 50 µM (inactive) |
